According to patent US11787780B2 (CORCEPT THERAPEUTICS INCORPORATED, priority 2020, dated 2023):

Test system: induction of TAT by dexamethasone in HepG2 cells
Test: Hep G2 TAT assay (inhibition of dexamethasone-induced TAT)
Format: cell-based, human
Details: challenge of 100 nM dexamethasone, IC50 converted to Ki by Cheng and Prusoff equation
Method: Glucocorticoid mediated activation of TAT occurs by transactivation of glucocorticoid response elements in the TAT promoter by glucocorticoid receptor-agonist complex. The following protocol describes an assay for measuring induction of TAT by dexamethasone in HepG2 cells (a human liver hepatocellular carcinoma cell line; ECACC, UK).
TAT activity was measured as outlined in the literature by A. Ah et al., J. Med. Chem., 2004, 47, 2441-2452.
HepG2 cells were cultured using MEME media supplemented with 10% (v/v) foetal bovine serum; 2 mM L-glutamine and 1% (v/v) NEAA at 37° C., 5%/95% (v/v) CO2/air. The HepG2 cells were counted and adjusted to yield a density of 0.125×10^6 cells/ml in RPMI 1640 without phenol red, 10% (v/v) charcoal stripped FBS, 2 mM L-glutamine and seeded at 25,000 cells/well in 200 μl into 96 well, sterile, tissue culture micro titre plates, and incubated at 37° C., 5% CO2 for 24 hours
Growth media was removed and replaced with assay media {RPMI 1640 without phenol red, 2 mM L-glutamine+10 μM forskolin}. Test compounds were screened against a challenge of 100 nM dexamethasone. Compounds were serially half log diluted in 100% (v/v) dimethylsulphoxide from a 10 mM stock.
Test compounds were pre-incubated with cells in micro-titre plates for 30 minutes at 37° C., 5/95 (v/v) CO2/air, before the addition of 100 nM dexamethasone and then subsequently for 20 hours to allow optimal TAT induction.
HepG2 cells were then lysed with 30 μl of cell lysis buffer containing a protease inhibitor cocktail for 15 minutes at 4° C. […] After 2 hours incubation at 37° C. the reaction was terminated by the addition of 15 μl of 10M aqueous potassium hydroxide solution, and the plates incubated for a further 30 minutes at 37° C. The TAT activity product was measured by absorbance at λ 340 nm.
[compound] and fitting the data to a 4 parameter logistic equation. IC50 values were converted to Ki (equilibrium dissociation constant) using the Cheng and Prusoff equation, assuming the antagonists were competitive inhibitors with respect to dexamethasone.

Row | Compound | Ki [nM]
1 | Cc1cc2c(cnn2-c2ccc(F)cc2)cc1C1(Cc2nccs2)CCN(S(C)(=O)=O)C1 (stereo not shown) [Example 187] | 199
2 | Cc1cc2c(cnn2-c2ccc(F)cc2)cc1C1(Cc2nccs2)CCN(S(=O)(=O)c2cnn(C)c2)C1 (stereo not shown) [Example 188] | 173
3 | Cc1cc2c(cnn2-c2ccc(F)cc2)cc1C1(Cc2ccccc2)CCN(C(=O)c2ccnnc2)C1 (stereo not shown) [Example 195, (3-benzyl-3-(1-(4-fluorophenyl)-6-methyl-1H-indazol-5-yl)pyrrolidin-1-yl)(pyridazin-4-yl)methanone] | 70
4 | Cc1cc2c(cnn2-c2ccc(F)cc2)cc1C1(Cc2ccccc2)CCN(C(=O)c2cncnc2)C1 (stereo not shown) [Example 196, (3-benzyl-3-(1-(4-fluorophenyl)-6-methyl-1H-indazol-5-yl)pyrrolidin-1-yl)(pyrimidin-5-yl)methanone] | 79
5 | Cc1cc(CC(=O)N2CCC(Cc3ccccc3)(c3cc4cnn(-c5ccc(F)cc5)c4cc3C)C2)on1 (stereo not shown) [Example 197, 1-(3-benzyl-3-(1-(4-fluorophenyl)-6-methyl-1H-indazol-5-yl)pyrrolidin-1-yl)-2-(3-methylisoxazol-5-yl)ethan-1-one] | 65
6 | Cc1cc2c(cnn2-c2ccc(F)cc2)cc1C1(Cc2ccccc2)CCN(C(=O)Cc2noc3ccccc23)C1 (stereo not shown) [Example 198, 2-(benzo[d]isoxazol-3-yl)-1-(3-benzyl-3-(1-(4-fluorophenyl)-6-methyl-1H-indazol-5-yl)pyrrolidin-1-yl)ethan-1-one] | 30
7 | COc1cc(OCCCC(=O)N2CCC(Cc3ccccc3)(c3cc4cnn(-c5ccc(F)cc5)c4cc3C)C2)ccc1CO (stereo not shown) [Example 199, 1-(3-benzyl-3-(1-(4-fluorophenyl)-6-methyl-1H-indazol-5-yl)pyrrolidin-1-yl)-4-(4-(hydroxymethyl)-3-methoxyphenoxy)butan-1-one] | 33
8 | Cc1cc2c(cnn2-c2ccc(F)cc2)cc1C1(Cc2ccccc2)CCN(C(=O)c2cc(CO)ccn2)C1 (stereo not shown) [Example 200, (3-benzyl-3-(1-(4-fluorophenyl)-6-methyl-1H-indazol-5-yl)pyrrolidin-1-yl)(4-(hydroxymethyl)pyridin-2-yl)methanone] | 59
9 | COc1ccccc1-c1noc(CCC(=O)N2CCC(Cc3ccccc3)(c3cc4cnn(-c5ccc(F)cc5)c4cc3C)C2)n1 (stereo not shown) [Example 201, 1-(3-benzyl-3-(1-(4-fluorophenyl)-6-methyl-1H-indazol-5-yl)pyrrolidin-1-yl)-3-(3-(2-methoxyphenyl)-1,2,4-oxadiazol-5-yl)propan-1-one] | 48
10 | Cc1cc2c(cnn2-c2ccc(F)cc2)cc1C1(Cc2ccccc2)CCN(C(=O)Cc2csc3ccccc23)C1 (stereo not shown) [Example 202, 2-(benzo[b]thiophen-3-yl)-1-(3-benzyl-3-(1-(4-fluorophenyl)-6-methyl-1H-indazol-5-yl)pyrrolidin-1-yl)ethan-1-one] | 67
11 | Cc1cc2c(cnn2-c2ccc(F)cc2)cc1C1(Cc2ccccc2)CCN(C(=O)c2ccsc2)C1 (stereo not shown) [Example 203, (3-benzyl-3-(1-(4-fluorophenyl)-6-methyl-1H-indazol-5-yl)pyrrolidin-1-yl)(thiophen-3-yl)methanone] | 21
12 | Cc1cc2c(cnn2-c2ccc(F)cc2)cc1C1(Cc2ccccc2)CCN(S(=O)(=O)c2cn(C)cn2)C1 (stereo not shown) [Example 210, 5-(3-benzyl-1-((1-methyl-1H-imidazol-4-yl)sulfonyl)pyrrolidin-3-yl)-1-(4-fluorophenyl)-6-methyl-1H-indazole] | 41
13 | Cc1cc2c(cnn2-c2ccc(F)cc2)cc1C1(CC#Cc2ccccc2)CCN(S(=O)(=O)c2cnn(C)c2)C1 (stereo not shown) [Example 211, 1-(4-fluorophenyl)-6-methyl-5-(1-((1-methyl-1H-pyrazol-4-yl)sulfonyl)-3-(3-phenylprop-2-yn-1-yl)pyrrolidin-3-yl)-1H-indazole] | 47
14 | COc1cc2c(cnn2-c2ccc(F)cc2)cc1C1(Cc2ccc(F)cc2)CCN(S(=O)(=O)c2cn(C)cn2)C1 (stereo not shown) [Example 216, 5-(3-(4-fluorobenzyl)-1-((1-methyl-1H-imidazol-4-yl)sulfonyl)pyrrolidin-3-yl)-1-(4-fluorophenyl)-6-methoxy-1H-indazole] | 53
15 | COc1cc2c(cnn2-c2ccc(F)cc2)cc1C1(Cc2ccc(F)cc2)CCN(S(=O)(=O)C2CC2)C1 (stereo not shown) [Example 220, 5-(1-(cyclopropylsulfonyl)-3-(4-fluorobenzyl)pyrrolidin-3-yl)-1-(4-fluorophenyl)-6-methoxy-1H-indazole] | 24
16 | CCCn1cc(S(=O)(=O)N2CCC(Cc3ccccc3)(c3cc4cnn(-c5ccc(F)cc5)c4cc3Cl)C2)cn1 (stereo not shown) [Example 224, 5-(3-benzyl-1-((1-propyl-1H-pyrazol-4-yl)sulfonyl)pyrrolidin-3-yl)-6-chloro-1-(4-fluorophenyl)-1H-indazole] | 21
17 | Cc1ncc(CC2(c3cc4cnn(-c5ccc(F)cc5)c4cc3C)CCN(S(=O)(=O)c3cnn(C)c3)C2)s1 (stereo not shown) [Example 227, 5-((3-(1-(4-fluorophenyl)-6-methyl-1H-indazol-5-yl)-1-((1-methyl-1H-pyrazol-4-yl)sulfonyl)pyrrolidin-3-yl)methyl)-2-methylthiazole] | 350
18 | O=C1CC(Cc2ccccc2)(c2cc3cnn(-c4ccc(F)cc4)c3cc2Cl)C(=O)N1Cc1ccccc1 (stereo not shown) [Example 228, 1,3-dibenzyl-3-(6-chloro-1-(4-fluorophenyl)-1H-indazol-5-yl)pyrrolidine-2,5-dione] | 28
19 | Cc1cc2c(cnn2-c2ccc(F)cc2)cc1C1(Cc2ccccc2)CCN(C(=O)c2csc(C(F)(F)F)n2)C1 (stereo not shown) [Example 229, (3-benzyl-3-(1-(4-fluorophenyl)-6-methyl-1H-indazol-5-yl)pyrrolidin-1-yl)(2-(trifluoromethyl)thiazol-4-yl)methanone] | 210
20 | COc1cc2c(cnn2-c2ccc(F)cc2)cc1C1(Cc2ccccc2)CCN(C(=O)c2cscn2)C1 (stereo not shown) [Example 230, (3-benzyl-3-(1-(4-fluorophenyl)-6-methoxy-1H-indazol-5-yl)pyrrolidin-1-yl)(thiazol-4-yl)methanone] | 74
21 | Cc1ncc(CC2(c3cc4cnn(-c5ccc(F)cc5)c4cc3C)CCN(C(=O)c3ccccc3)C2)s1 (stereo not shown) [Example 234, (3-(1-(4-fluorophenyl)-6-methyl-1H-indazol-5-yl)-3-((2-methylthiazol-5-yl)methyl)pyrrolidin-1-yl)(phenyl)methanone] | 150
22 | COc1ccc(-n2ncc3cc(C4(Cc5ccccc5)CCN(S(=O)(=O)c5cnn(C)n5)C4)c(C)cc32)cn1 (stereo not shown) [Example 236, 5-(3-benzyl-1-((2-methyl-2H-1,2,3-triazol-4-yl)sulfonyl)pyrrolidin-3-yl)-1-(6-methoxypyridin-3-yl)-6-methyl-1H-indazole] | 81
23 | Cc1cc2c(cnn2-c2cccnc2)cc1C1(Cc2ccccc2)CCN(S(=O)(=O)c2cnn(C)n2)C1 (stereo not shown) [Example 238, 5-(3-benzyl-1-((2-methyl-2H-1,2,3-triazol-4-yl)sulfonyl)pyrrolidin-3-yl)-6-methyl-1-(pyridin-3-yl)-1H-indazole] | 64
24 | Cc1cc(-n2ncc3cc(C4(Cc5ccccc5)CCN(S(=O)(=O)c5cnn(C)n5)C4)c(C)cc32)ccn1 (stereo not shown) [Example 240, 5-(3-benzyl-1-((2-methyl-2H-1,2,3-triazol-4-yl)sulfonyl)pyrrolidin-3-yl)-6-methyl-1-(2-methylpyridin-4-yl)-1H-indazole] | 73
25 | Cc1cc2c(cnn2-c2cccc(C#N)c2)cc1C1(Cc2ccccc2)CCN(S(=O)(=O)c2cnn(C)n2)C1 (stereo not shown) [Example 241, 3-(5-(3-benzyl-1-((2-methyl-2H-1,2,3-triazol-4-yl)sulfonyl)pyrrolidin-3-yl)-6-methyl-1H-indazol-1-yl)benzonitrile] | 44
26 | Cc1cc2c(cnn2-c2ccn(C)c(=O)c2)cc1C1(Cc2ccccc2)CCN(S(=O)(=O)c2cnn(C)n2)C1 (stereo not shown) [Example 244, 4-(5-(3-benzyl-1-((2-methyl-2H-1,2,3-triazol-4-yl)sulfonyl)pyrrolidin-3-yl)-6-methyl-1H-indazol-1-yl)-1-methylpyridin-2(1H)-one] | 840
27 | Cc1cc2c(cnn2-c2cc(C#N)c(=O)n(C)c2)cc1C1(Cc2ccccc2)CCN(S(=O)(=O)c2cnn(C)n2)C1 (stereo not shown) [Example 245, 5-(5-(3-benzyl-1-((2-methyl-2H-1,2,3-triazol-4-yl)sulfonyl)pyrrolidin-3-yl)-6-methyl-1H-indazol-1-yl)-1-methyl-2-oxo-1,2-dihydropyridine-3-carbonitrile] | 190
28 | CCn1cc(-n2ncc3cc(C4(Cc5ccccc5)CCN(S(=O)(=O)c5cnn(C)n5)C4)c(C)cc32)ccc1=O (stereo not shown) [Example 268, 5-(5-(3-benzyl-1-((2-methyl-2H-1,2,3-triazol-4-yl)sulfonyl)pyrrolidin-3-yl)-6-methyl-1H-indazol-1-yl)-1-ethylpyridin-2(1H)-one] | 160
